Test results: ChEMBL document CHEMBL5346943, “Discovery and Structural Optimization of Novel Quinolone Derivatives as Potent Irreversible Pan-Fibroblast Growth Factor Receptor Inhibitors for Treating Solid Tumors” (J Med Chem, 2023)

Experiments:
[1] = target: T1, Fibroblast growth factor receptor 4 (Homo sapiens, UniProt P22455); test: Inhibition of FGFR4 (unknown origin) at 100 nM incubated for 10 mins followed by substrate addition measured after 60 mins by ADP-Glo luminescence assay relative to control; conditions: time 70.0 min
Target sequence in this assay (P22455 22-802 limits assumed): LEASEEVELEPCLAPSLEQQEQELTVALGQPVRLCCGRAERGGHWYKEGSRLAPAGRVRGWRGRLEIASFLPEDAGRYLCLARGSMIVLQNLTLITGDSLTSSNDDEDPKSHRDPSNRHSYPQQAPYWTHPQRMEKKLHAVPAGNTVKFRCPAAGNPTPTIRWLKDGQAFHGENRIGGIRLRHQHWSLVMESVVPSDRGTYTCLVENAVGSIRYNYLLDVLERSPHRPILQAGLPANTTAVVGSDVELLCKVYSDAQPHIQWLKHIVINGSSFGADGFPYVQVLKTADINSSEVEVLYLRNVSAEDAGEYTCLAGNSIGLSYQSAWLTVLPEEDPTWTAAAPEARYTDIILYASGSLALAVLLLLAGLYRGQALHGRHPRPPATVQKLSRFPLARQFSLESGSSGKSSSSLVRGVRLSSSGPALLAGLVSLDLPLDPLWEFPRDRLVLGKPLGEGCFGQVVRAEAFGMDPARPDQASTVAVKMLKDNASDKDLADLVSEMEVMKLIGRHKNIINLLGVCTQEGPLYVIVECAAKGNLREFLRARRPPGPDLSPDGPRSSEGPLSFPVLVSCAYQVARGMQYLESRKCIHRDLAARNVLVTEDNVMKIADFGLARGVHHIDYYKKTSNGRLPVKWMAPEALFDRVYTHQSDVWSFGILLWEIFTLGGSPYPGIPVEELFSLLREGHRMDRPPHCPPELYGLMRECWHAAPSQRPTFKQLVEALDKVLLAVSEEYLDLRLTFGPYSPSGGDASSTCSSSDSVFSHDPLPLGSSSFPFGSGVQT

Huh-7 = test: Antiproliferative activity against human Huh-7 cells incubated for 72 hrs by Cell counting kit 8 method; type: functional, cell-based; conditions: Huh-7, 72 h
Hep 3B2 = test: Antiproliferative activity against human Hep3B cells incubated for 72 hrs by Cell counting kit 8 method; type: functional, cell-based
[2] = target: T1, Fibroblast growth factor receptor 4; test: Inhibition of FGFR4 (unknown origin) incubated for 10 mins followed by substrate addition measured after 60 mins by ADP-Glo luminescence assay
Target sequence in this assay (P22455 whole entry): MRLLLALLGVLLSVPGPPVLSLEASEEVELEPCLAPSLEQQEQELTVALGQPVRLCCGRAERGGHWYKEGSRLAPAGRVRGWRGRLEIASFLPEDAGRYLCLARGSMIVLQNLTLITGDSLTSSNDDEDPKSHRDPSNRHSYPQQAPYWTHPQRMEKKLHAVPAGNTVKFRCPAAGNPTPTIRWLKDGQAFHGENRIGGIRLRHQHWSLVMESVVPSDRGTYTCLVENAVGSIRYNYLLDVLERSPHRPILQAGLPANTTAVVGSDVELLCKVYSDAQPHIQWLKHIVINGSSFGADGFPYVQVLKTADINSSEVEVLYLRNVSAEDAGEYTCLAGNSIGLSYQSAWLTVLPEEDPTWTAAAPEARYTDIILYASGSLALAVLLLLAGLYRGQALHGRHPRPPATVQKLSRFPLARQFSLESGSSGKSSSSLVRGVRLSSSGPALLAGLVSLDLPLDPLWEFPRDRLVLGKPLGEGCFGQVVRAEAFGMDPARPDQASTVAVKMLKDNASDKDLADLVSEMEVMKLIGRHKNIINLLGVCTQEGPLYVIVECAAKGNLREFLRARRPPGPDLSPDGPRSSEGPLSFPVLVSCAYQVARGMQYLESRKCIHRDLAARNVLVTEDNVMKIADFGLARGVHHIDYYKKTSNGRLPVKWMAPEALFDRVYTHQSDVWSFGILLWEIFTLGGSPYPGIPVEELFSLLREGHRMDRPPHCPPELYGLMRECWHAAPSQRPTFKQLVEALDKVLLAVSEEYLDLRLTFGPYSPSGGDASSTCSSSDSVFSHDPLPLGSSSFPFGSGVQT

Row | SMILES | inhibition [1] [%] | IC50 (Huh-7) [nM] | IC50 (Hep 3B2) [nM] | IC50 [2] [nM]
1 | C=CC(=O)N1CCC(c2cc3c(Oc4ccc(NC(=O)Cc5ccccc5)cc4F)ccnc3cc2OC)CC1 | 1.1 | 2210 | 1350 | –
2 | C=CC(=O)N1CCC(c2cc3c(Oc4ccc(/N=C5\CCCN5C)c(Cl)c4)ccnc3cc2OC)CC1 | – | > 10000 | > 10000 | –
3 | C=CC(=O)N1CCC(c2cc3c(Nc4ccc(F)c(Cl)c4)ccnc3cc2OC)CC1 | 15.3 | > 10000 | > 10000 | –
4 | C=CC(=O)N1CCC(c2cc3c(Oc4ccc5c(C(=O)NC)c(C)oc5c4)ccnc3cc2OC)CC1 | 40.7 | 32.9 | 41 | –
5 | C=CC(=O)N1CC=C(c2cc3c(Oc4ccc(NC(=O)NC5CC5)c(Cl)c4)ccnc3cc2OC)C1 | – | 1520 | 438 | 2.49
6 | COc1cc2nccc(Oc3ccc(NC(=O)NC4CC4)c(Cl)c3)c2cc1C1CCN(C(=O)/C=C/CN(C)C)CC1 | – | 26.1 | 30 | 4.6
7 | [2H]C([2H])([2H])Oc1cc2nccc(Oc3ccc(NC(=O)NC4CC4)c(Cl)c3)c2cc1C1CCN(C(=O)C=C)CC1 | – | 17.8 | 72.6 | 7.04
8 | C=CC(=O)N1CCC(c2cc3c(Oc4ccc(NC(=O)NC5CC5)c(Cl)c4)ncnc3cc2OC)CC1 | – | 71.3 | 72.6 | 15
9 | C=CC(=O)N1CCC(c2cc3c(Oc4ccc(NC(=O)NC5CC5)c(Cl)c4)c(C#N)cnc3cc2OC)CC1 | 15 | 8830 | > 10000 | –
10 | C=CC(=O)N1CCC(c2cc3c(Oc4ccc(NC(=O)c5c(C)n(C)n(-c6ccccc6)c5=O)cc4F)ccnc3cc2OC)CC1 | – | 1710 | 450 | –
11 | C=CC(=O)N1CCC(c2cc3c(Oc4ccc(NC(=O)C5(C(=O)Nc6ccc(F)cc6)CC5)cc4)ccnc3cc2OC)CC1 | -2.1 | > 10000 | 3930 | –
12 | C=CS(=O)(=O)N1CC=C(c2cc3c(Oc4ccc(NC(=O)NC5CC5)c(Cl)c4)ccnc3cc2OC)CC1 | – | > 10000 | 5080 | 4.65
13 | C=CC(=O)N1CC=C(c2cc3c(Oc4ccc(NC(=O)NC5CC5)c(Cl)c4)ccnc3cc2OC)CC1 | – | 54.3 | 66.2 | 2.88
14 | C=CC(=O)N1CCC(c2cc3c(Oc4ccc(NC(=O)NC5CC5)c(F)c4)ccnc3cc2OC)CC1 | – | 21.1 | 30.2 | 18
15 | C=CC(=O)N1CCC(c2cc3c(Oc4ccc(NC(=O)Nc5cc(C)on5)c(Cl)c4)ccnc3cc2OC)CC1 | 36.5 | 384 | 664 | –
